The structures appear in SMILES notation. Where a name gives a salt, the structure may show the parent alone.

Data on two molecules can be found in patent publication US11311508B2, “Medicinal composition for preventing or treating secondary hyperparathyroidism under maintenance dialysis” (EA Pharma Co., Ltd., priority 2017, dated 2022).

For data set [1], the system named is bilaterally nephrectomized rats. In words: Survival of bilaterally nephrectomized rats after single doses. It counts as in vivo, rat. Conditions: five rats per group. The text has this:
After quarantine and acclimatization periods of 6 days, fifty-one 7-week-old rats (Crl: CD (SD), male) were fed a 100% sucrose diet ad libitum from four days before the surgery. On the day of the surgery, skin incisions were made on the back at the sites of the right and left kidneys under isoflurane anesthesia and the renal capsules were removed to ligate the renal arteries and veins and the ureters using threads before removing the right and left kidneys. A penicillin solution was given upon suturing, and 5 mL of physiological saline was intraperitoneally administered before returning the rats into the breeding cages.
On a day after the bilaterally nephrectomy, the given doses were calculated based on the weight of the selected animals on that day. Group 1 was given a medium (physiological saline), Groups 2, 3 and 4 were given the Compound A1 solution (0.3, 3 and 30 mg/mL, respectively), and Groups 5, 6, 7 and 8 (5 rats per group) were given the comparative compound (0.3, 1, 3 and 10 mg/mL, respectively), each given a single dose of 1 ml/kg from the tail vein. Prior to the administration (0 hour), and 24 and 48 hours after the administration, approximately 300 μL of blood was collected without anesthesia from the tail vein using capillary tubes for obtaining the serum. The blood for obtaining the serum was left to stand at room temperature, and centrifuged in a high speed refrigerated microcentrifuge (10000 rpm, 5 min, 4° C.) within a period of 30 minutes to 2 hours after the blood collection to collect the serum.
The number of rats in each group was five prior to the administration.

The nature of a further data set: in vivo. The conditions noted are these: Crl:CD(SD), rat, iv, 30 mg/kg. The procedure: The mean±standard error of the serum iPTH concentrations of all individuals prior to the administration (0 hour) was 231±16 pg/ml.
Logistic curve fitting was conducted to establish the response relationship between the serum iPTH concentration 48 hours after the administration and the given dose.

Data set [2] can be described thus: Emetogenicity in dogs (crossover, intravenous bolus). Conditions: male, beagle, dog, in vivo, 1 mg/kg (no vomiting case). The procedure:
A crossover trial was conducted with male beagles (Nosan Beagle, 14-87-month-old, weight: 10.2 kg-15.8 kg). The Compound A1 solutions used in Example 2 were given at 0.3, 1 and 10 mg/kg by bolus administration (0.5 mL/kg, 1 mL/sec) to 3-6 dogs per dose to confirm the manifestation of vomiting immediately after the administration. Administration was conducted once or twice a week with a 2-day interval. Administration was conducted prior to feeding. Symptoms prior to, immediately after, and 15 and 30 minutes after the administration were observed.

The subject of data set [3] is healthy Japanese male adults. In words: Phase I clinical trial (P1), single intravenous dose. It counts as in vivo, human. The procedure:
Thirty-two healthy Japanese male adults were given a single intravenous dose of the test drug (Compound A1) at 0.01 mg, 0.1 mg, 1.0 mg or 2.5 mg in a fasted state to study the pharmacokinetics, pharmacodynamics and safety by a double-blind test using a placebo as a control. Here, the trial drug was administered by diluting a required dose taken from the Compound A1 vial formulation prepared as follows with sterilized water for injection, and filling a syringe with the resultant in accordance with the dose to be administered.
A vial formulation encapsulating 100 mg of Compound A1 in terms of a dehydrate, and sodium chloride, disodium hydrogen phosphate dodecahydrate and sodium dihydrogen phosphate dihydrate as additives in 10 ml of sterilized water for injection

A short description of data set [4]: PK/PD analysis of P1 (three-compartment model, indirect response model incorporating rebound). It counts as in vivo, human. Conditions: male, human, plasma, intravenous. The procedure:
(§1) A PK/PD analysis was conducted to estimate the clinically effective dose based on the results from P1. The dose of 2.5 mg seemed to be excessive and thus was eliminated from the analysis. PK (mean plasma concentration) and PD (mean iPTH level normalized by the levels of the placebo group and the 0-hour level) data of the doses of 0.01 mg, 0.1 mg and 1 mg were used. An indirect response model incorporating rebound was used for the PK/PD analysis.
(§2) Based on the results of PK of the three given doses (0.01 mg, 0.1 mg and 1 mg) in P1, the three given doses were simultaneously analyzed using a three-compartment model to calculate the PK parameters (FIG. 5 and Table 2).
(§3) Using the calculated PK parameters as an input function, PK/PD analysis was performed using an indirect response model incorporating rebound (FIG. 6) to calculate the EC50 value in healthy adults (FIG. 7 and Table 3).

Another data set concerns healthy adults. The description is as above. Type of data set: in vivo, human. The conditions noted are these: Homo sapiens; iPTH decrease, healthy adults, indirect response model incorporating rebound; ± standard error. The procedure: as §1, §2, §3
The subject of another data set is normal rats. In words: PK/PD analysis (EC50) in normal rats. Type of data set: in vivo. Conditions: Rattus norvegicus, same PK/PD analysis. The text has this: (§4) EC50 value in patient with renal failure was estimated based on the calculated EC50 value in healthy adults and the results from the same analysis in normal rats and adenine-treated rat models (pathological rat models). […] Since the difference in the EC50 value between rats in normal state and pathological state is presumed to be caused by the changes in PK that are considered to greatly vary between normal state and pathological state, similar tendency is expected in human as well.

The subject of data set [5] is adenine-treated rat models. In words: PK/PD analysis (EC50) in adenine-treated rat models. It counts as in vivo. Conditions: adenine-treated rat models (pathological rat models), same PK/PD analysis.
Source text: as §4

Data set [6] has as its system patients with renal failure. Briefly: Estimation of EC50, PK and clinically effective dose in patients with renal failure. Also noted: species or system human. The conditions noted are these: scaling factor applied to healthy adult EC50.
Source text: as §4
The result from PK fitting, and the contribution rate of renal elimination of the drug (3.2%) calculated using PK-sim (registered trademark) were used to simulate PK prediction in the patients with renal failure. […] As a result, administration of a dose of 0.06 mg/man was estimated to maintain a concentration higher than 1.4 ng/ml for 72 hours (FIG. 8).

The nature of data set [7]: Phase I/II clinical trial, single intravenous administration. It counts as in vivo, human. The conditions noted are these: human, plasma, iv; single i.v. 0.025-0.8 mg; read-out: t½. The procedure: (§5) Targeting SHPT patients on maintenance hemodialysis, pharmacokinetics, pharmacodynamics and safety upon single or repeated intravenous administration of Compound A1 were examined by conducting a double-blind test using a placebo as a control.
(§6) Single administration: Based on the clinically effective dose calculated in Example 5, the doses were given at 0.025 mg, 0.05 mg, 0.1 mg, 0.2 mg, 0.4 mg, 0.6 mg and 0.8 mg (7 steps). On the day of trial drug administration, the trial drug was intravenously administered as slow as possible within 60 seconds 2 to 4 hours following the end of dialysis. Here, the trial drug was administered by diluting a required dose taken from the Compound A1 vial formulation prepared as follows with sterilized water for injection, and filling a syringe with the resultant in accordance with the dose to be administered.
(§7) Each item was evaluated according to the predetermined evaluation schedule.
(§8) A vial formulation encapsulating 1 mg of Compound A1 in terms of a dehydrate, and sodium chloride, disodium hydrogen phosphate dodecahydrate and sodium dihydrogen phosphate dihydrate as additives in 10 ml of sterilized water for injection

The subject of data set [8] is SHPT patients on maintenance hemodialysis. Described as above. Type of data set: in vivo, human. The procedure: as §5, §6, §7, §8
The test system is the same in data set [9]. In words: Phase I/II clinical trial, repeated intravenous administration. It counts as in vivo, human. The procedure:
as §5
Repeated administration: Based on the clinically effective dose calculated in Example 5, the doses were given in 3 steps, namely, 0.05 mg, 0.1 mg and 0.2 mg. The trial drug was (intravenously) infused from the venous side of the dialysis circuit before the end of dialysis three times a week for 22 days (total of 9 times) starting from the first day of administration of the trial drug. Here, the trial drug was administered by diluting a required dose taken from the Compound A1 vial formulation prepared as follows with sterilized water for injection, and filling a syringe with the resultant in accordance with the dose to be administered.
as §7, §8

A further data set relates to normal rat. Briefly: Non-clinical studies of excretion and elimination. Type of data set: in vivo. The text has this: Compound A1 is a CaSR activator used for intravenous administration.

As for `CC(=O)N[C@H](CSSC[C@H](N)C(=O)O)C(=O)N[C@H](C)C(=O)N[C@H](CCCNC(=N)N)C(=O)N[C@H](CCCNC(=N)N)C(=O)N[C@H](CCCNC(=N)N)C(=O)N[C@H](C)C(=O)N[C@H](CCCNC(=N)N)C(N)=O` [comparative compound, etelcalcetide (Ac-c(C) arrrar-NH2) TFA salt], the “survival 48 hours after the administration” value in data set [1] (3 mg/kg group) is “four survived”; in [1] (10 mg/kg group), “one survived”.

As usually defined, the Vd is the apparent volume that relates the amount in the body to the concentration in plasma or blood. A lower Vd goes with little distribution into tissue. The EC50 is the concentration giving half of the maximal effect. A lower EC50 goes with an effect from little substance. For the molecule `Cc1c(Cl)cc(S(=O)(=O)[O-])cc1NC(=O)NC[C@H](N)C(=O)O.[Na+]` [Compound A1, sodium 3-{[(2S)-2-amino-2-carboxyethyl]carbamoylamino}-5-chloro-4-methylbenzenesulfonate], the “survival 48 hours after the administration” value in data set [1] (all administered groups (0.3, 3 and 30 mg/kg)) is “all five rats survived”. Also, the concentration at 48 h in “in vivo” turned out to be 18800 ng/mL. In data set [2], this molecule came in with a C0 of 18.8 µM. In addition, the elimination from plasma result in data set [3] (single i.v. 0.01, 0.1, 1.0 and 2.5 mg) is “rapidly eliminated”. Further, in data set [3] (single i.v. dose), the “safety (side effects)” value is “non-severe and mild side effects such as vomiting were observed in the 1.0 mg and higher dose groups”; the “serum iPTH concentration compared to before the administration” value is “decreased in the 0.01 mg and higher dose groups”. Moreover, the “excretion into the urine” value in data set [3] (with respect to the given dose) is “excreted into the urine mostly as unchanged substances”. The Vd in data set [4] (three-compartment model, doses 0.01, 0.1, 1 mg, ± standard error) came to 0.0909 ± 0.0114 L/kg. Besides, the C0 in data set [4] (assumed effective dose 0.1 mg/man, from simultaneous fitting of all doses) was determined as 0.0436 µM. This molecule also displayed an EC50 in the data set with healthy adults of 0.000421 ± 0.000167 µg/mL. Moreover, the EC50 in the data set on normal rats was < 0.0229 µg/mL. In [5], this molecule came in with an EC50 of 0.0748 µg/mL. Also, the “EC50 value estimated in the patients with renal failure” value in [6] was > 0.0014 µg/mL. Further, the half-life in [7] fell in the range of 65 to 122 h. The “lowering of plasma concentration immediately after dialysis vs just before the dialysis” value in data set [8] (hemodialysis performed 66 hours after the administration) is given as 75-81%. Moreover, in data set [8] (single administration), the “nausea observed (non-severe and mild)” value is “in the 0.6 mg and higher dose groups”; the “vomiting observed (non-severe and mild)” value was “in the 0.4 mg and higher dose groups”. Also, the “duration of serum iPTH lowering effect after the administration” value in data set [8] (single administration, until just before the dialysis) is “up to 66 hours”. Also, in data set [9], the accumulating property entry is given as “has not no accumulating property” and the “trough concentration in plasma before the dialysis following the longest interval” value was “generally constant”. Besides, the “maintenance of serum iPTH lowering effect” value in [9] (test period) is “maintained its effect with repeated administration”. In addition, in [9] (three times a week for 22 days), the “form present in the plasma” value was “present mainly as an unchanged substance”. Moreover, the “elimination from the plasma” value in the data set with normal rat (intravenously administered to a normal rat) was “rapidly eliminated from the plasma”. The “main route of excretion” value with normal rat (non-clinical studies) is given as “renal excretion is the main route of excretion”.
